Assay results as given in US10899747B2, “Biaryl piperidine amide compounds and methods of use thereof” (Athenex, Inc., priority 2017, dated 2021).

test system: IL-2; test: PHA-IL2 (cell activation and cytokine analysis); format: cell-based; details: 50% inhibition concentration class
Protocol: Cells to be tested may include, but are not limited to, a) Jurkat (a transformed human T cell leukemia), b) whole blood isolated from human or rodent sources, c) peripheral blood mononuclear cells (PBMC) freshly isolated from human or rodent whole blood, or d) purified fractions of PBMC (e.g., CD4 T cells). Cells are plated in 96-well plates at a final density of 1.0-2.0×10^6 cells/ml in 150 ul of assay medium (RPMI+0.5% fetal calf serum). Test compounds are included at a final concentration of ≤20 uM and generally pre-incubated with cells for 30 minutes prior to stimulation. An appropriate stimulus is added, including but not limited to, a) phytohemagglutinin (PHA), b) phorbol myristate acetate (PMA) and ionomycin, or c) stimulatory antibodies to the T cell receptor (TCR) complex (e.g., anti-CD3ε) and CD28. Cell cultures are stimulated for 24-48 hours in a humidified incubator (37 degrees C./5% CO2). A fraction of the culture supernatant is than harvested from each well and assayed for the presence of appropriate cytokine using standard ELISA. Cytokines to be analyzed may include IL-2, IL-4, IL-10, IL-17, IL-22, IFNγ, and/or TNFα. If required, the number of cytokine producing cells can be determined using intracellular staining and flow cytometry. […]

SMILES | IC50 [nM]
O=C(CCc1ccccc1-c1ccccc1)N1CCC(CCc2cc(F)cc(F)c2)CC1 [Compound 220] | 10000 to 50000
CC(C)NC(=O)c1ccc(OCC(=O)N2CCC(CCc3ccccc3)CC2)c(-c2ccc(F)cc2O)c1 [Compound 319] | 10000 to 50000
COc1ccc(CCC2(O)CCN(C(=O)COc3ccc(F)cc3-c3ccccc3)CC2)cc1 [Compound 176] | 10000 to 50000
O=C(COc1ccncc1-c1ccc(F)cc1O)N1CCC(CCc2ccc3c(c2)OCO3)CC1 [Compound 331] | 10000 to 50000
CN(C)c1ccc(-c2ccccc2OCC(=O)N2CCC(CCc3ccc4c(c3)OCO4)CC2)cc1 [Compound 213] | 10000 to 50000
COc1ccc(CCC2CCN(C(=O)COc3ccccc3-c3ccc(F)cc3O)CC2)cc1OCCN1CCOCC1 [Compound 391] | 1000 to 10000
O=C(COc1ccccc1-c1ccc(F)cc1O)N1CCC(CCc2ccc(OCCN3CCOCC3)cc2)CC1 [Compound 349] | 1000 to 10000
CCOc1ccc(-c2ccccc2OCC(=O)N2CCC(CCc3ccc4c(c3)OCO4)CC2)cc1 [Compound 186] | 1000 to 10000
COc1cc(CCC2CCN(C(=O)COc3cccnc3-c3ccc(F)cc3O)CC2)ccc1OCCN1CCOCC1 [Compound 381] | 10000 to 50000
Cc1cnc(CCC2CCN(C(=O)COc3ccc(C#N)cc3-c3ccc(C#N)cc3)CC2)cn1 [Compound 426] | 1000 to 10000
Cn1ccc2cc(-c3ncccc3OCC(=O)N3CCC(CCc4ccc5c(c4)OCO5)CC3)ccc21 [Compound 379] | 1000 to 10000
CC(C)Oc1cccc(CCC2CCN(C(=O)COc3ccccc3-c3ccc(C(=O)c4ccc(O)cc4)cc3)CC2)c1 [Compound 421] | 1000 to 10000
COc1ccccc1-c1ccccc1OCC(=O)N1CCC(CCc2ccc3c(c2)OCO3)CC1 [Compound 180] | 1000 to 10000
COc1cccc(CCC2CCN(C(=O)COc3cccnc3-c3ccc(C(F)(F)F)cc3O)CC2)c1 [Compound 363] | 1000 to 10000
O=C(COc1ccccc1-c1ccc(Cl)cc1Cl)N1CCC(CCc2ccc3c(c2)OCO3)CC1 [Compound 240] | 1000 to 10000
O=C(c1ccccc1)c1ccc(-c2ccccc2OCC(=O)N2CCC(CCc3cc(Br)c(O)c(Br)c3)CC2)cc1 [Compound 332] | 1000 to 10000
C#CCOc1cccc(CCC2CCN(C(=O)COc3ccccc3-c3ccc(C(=O)c4ccccc4)cc3)CC2)c1 [Compound 416] | 1000 to 10000
C#CCOc1ccc(C(=O)c2ccc(-c3ccccc3OCC(=O)N3CCC(CCc4cccc(OC(C)C)c4)CC3)cc2)cc1 [Compound 419] | 1000 to 10000
N#Cc1ccc(-c2ccccc2OCC(=O)N2CCC(CCc3ccc4c(c3)NC(=O)CO4)CC2)cc1 [Compound 257] | 1000 to 10000
COc1cccc(CCC2CCN(C(=O)COc3cccnc3-c3ccc4[nH]ccc4c3)CC2)c1 [Compound 377] | 1000 to 10000
Nc1ccc(/C=C/C2CCN(C(=O)COc3ccccc3-c3ccccc3)CC2)cn1 [Compound 252] | 10000 to 50000
O=C(COc1ccccc1-c1ccccc1O)N1CCC(CCc2ccc3c(c2)OCCO3)CC1 [Compound 295] | 1000 to 10000
Cc1cnc(C#CC2CCN(C(=O)COc3ccc(C#N)cc3-c3ccc(C#N)cc3)CC2)cn1 [Compound 425] | 1000 to 10000
Cn1ccc2cc(-c3ccccc3OCC(=O)N3CCC(CCc4ccc5c(c4)OCO5)CC3)ccc21 [Compound 384] | 1000 to 10000
O=C(COc1ccccc1-c1cnccn1)N1CCC(CCc2ccccc2)CC1 [Compound 423] | 1000 to 10000
COc1cccc(CCC2CCN(C(=O)COc3ccc(S(N)(=O)=O)cc3-c3ccc(C#N)cc3)CC2)c1 [Compound 385] | 1000 to 10000
O=C(COc1ccc(C(F)(F)F)cc1-c1ccc(F)cc1O)N1CCC(CCc2cccc(OCCN3CCOCC3)c2)CC1 [Compound 356] | 1000 to 10000
O=C(C[S+]([O-])c1ccccc1-c1ccccc1)N1CCC(CCc2ccccc2)CC1 (stereo not drawn) [Compound 312] | 10000 to 50000
CCN(CC)C(=O)c1cccc(-c2ccccc2OCC(=O)N2CCC(CCc3ccc4c(c3)OCO4)CC2)c1 [Compound 185] | 10000 to 50000
O=C(COc1cccnc1-c1ccc(F)cc1O)N1CCC(CCc2ccc(OCCN3CCOCC3)cc2)CC1 [Compound 358] | 1000 to 10000

Other lines, results leading:

IC50 [nM] | SMILES
1000 to 10000 | O=C(COc1cccnc1-c1ccc(F)cc1O)N1CCC(CCc2ccc3c(c2)OCCCO3)CC1 [Compound 338]
1000 to 10000 | N#Cc1ccc(-c2cc(C(=O)NCCO)ccc2OCC(=O)N2CCC(CCc3ccccc3)CC2)cc1 [Compound 322]
1000 to 10000 | O=C(COc1ccccc1-c1ccc(F)cc1O)N1CCC(CCc2ccc(F)c(C(F)(F)F)c2)CC1 [Compound 307]
1000 to 10000 | N#Cc1ccc(-c2ncccc2OCC(=O)N2CCC(CCc3ccc4c(c3)OCO4)CC2)cc1 [Compound 323]
< 1000 | CC(C)Oc1cccc(CCC2CCN(C(=O)COc3ccccc3-c3ccc(F)cc3O)CC2)c1 [Compound 400]
< 1000 | O=C(COc1ccccc1-c1ccc2[nH]ncc2c1)N1CCC(CCc2ccc(O)cc2)CC1 [Compound 281]
< 1000 | N#Cc1ccc(-c2ccccc2OCC(=O)N2CCC(CCc3cccc4c3OCO4)CC2)cc1 [Compound 299]
< 1000 | N#Cc1ccc(OCC(=O)N2CCC(CCc3ccc4c(c3)OCO4)CC2)c(-c2ccc(F)cc2O)c1 [Compound 346]
1000 to 10000 | O=C(COc1cccnc1-c1ccc(F)nc1)N1CCC(CCc2ccc3c(c2)OCO3)CC1 [Compound 340]
1000 to 10000 | O=C(COc1ccccc1-c1ccc2[nH]cnc2c1)N1CCC(CCc2ccc3c(c2)OCO3)CC1 [Compound 382]
< 1000 | N#Cc1ccc(OCC(=O)N2CCC(CCc3cccc(OC4CCCC4)c3)CC2)c(-c2ccc(F)cc2O)c1 [Compound 409]
1000 to 10000 | Cc1cccc(-c2ccccc2)c1OC(C)C(=O)N1CCC(CCc2cc(F)cc(F)c2)CC1 (stereo not drawn) [Compound 229]
1000 to 10000 | CCc1ccc(OCC(=O)N2CCC(CCc3ccc4c(c3)OCO4)CC2)c(-c2ccc(C#N)cc2)c1 [Compound 274]
1000 to 10000 | O=C(COc1ccccc1-c1ccnc(N2CCOCC2)c1)N1CCC(CCc2ccc3c(c2)OCO3)CC1 [Compound 161]
1000 to 10000 | COc1ncccc1-c1ccccc1OCC(=O)N1CCC(CCc2ccc3c(c2)OCO3)CC1 [Compound 191]
< 1000 | CC(C)Oc1ccc(CCC2CCN(C(=O)COc3ccccc3-c3ccc(C#N)cc3)CC2)cc1 [Compound 430]
1000 to 10000 | O=C(COc1ccccc1-c1ccc2[nH]cnc2c1)N1CCC(CCc2ccc(O)cc2)CC1 [Compound 383]
< 1000 | CC1CC(CCc2ccccc2)CCN1C(=O)COc1ccccc1-c1ccc(C#N)cc1 (stereo not drawn) [Compound 302]
1000 to 10000 | O=C(COc1ccccc1-c1ccccc1)N1CCC(CCc2cc3c(cc2CO)OCO3)CC1 [Compound 285]
< 1000 | CC1Oc2ccc(CCC3CCN(C(=O)COc4ccccc4-c4ccc(F)cc4)CC3)cc2OC1C (stereo not drawn) [Compound 264]

IC50 [nM] | SMILES
1000 to 10000 | O=C(COc1ccccc1-c1ccccc1F)N1CCC(CCc2ccc3c(c2)OCO3)CC1 [Compound 177]
< 1000 | O=C(COc1ccccc1-c1cccc(Cl)c1)N1CCC(CCc2ccc3c(c2)OCO3)CC1 [Compound 201]
< 1000 | O=C(COc1ccccc1-c1ccc2[nH]ncc2c1)N1CCC(CCc2ccc3c(c2)OCCO3)CC1 [Compound 293]
< 1000 | N#Cc1ccc(OCC(=O)N2CCC(CCc3ccc(OCCN4CCOCC4)cc3)CC2)c(-c2ccc(F)cc2O)c1 [Compound 357]
< 1000 | CC(C)Oc1cccc(CCC2CCN(C(=O)COc3ccc(C#N)cc3-c3ccc(F)cc3O)CC2)c1 [Compound 399]
< 1000 | O=C(C1CC1c1cc2c(cc1-c1ccccc1)OCO2)N1CCC(CCc2ccc3c(c2)OCO3)CC1 (stereo not drawn) [Compound 260]
< 1000 | CC(C)NC(=O)c1ccc(OCC(=O)N2CCC(CCc3ccccc3)CC2)c(-c2ccc(C#N)cc2)c1 [Compound 317]
< 1000 | CC1Oc2ccc(CCC3CCN(C(=O)COc4ccccc4-c4ccc(Cl)nc4)CC3)cc2OC1C (stereo not drawn) [Compound 265]
< 1000 | CC(C)Oc1ccc(CCC2CCN(C(=O)COc3ccccc3-c3ccc(F)cc3O)CC2)cc1 [Compound 432]
< 1000 | O=C(COc1ccccc1-c1ccc2[nH]ncc2c1)N1CCC(CCc2ccc3c(c2)OCCCO3)CC1 [Compound 267]
< 1000 | O=C(COc1ccccc1-c1ccc2[nH]ncc2c1)N1CCC(CCc2ccccc2)CC1 [Compound 272]
< 1000 | COc1cccc(CCC2CCN(C(=O)COc3ccc(C(F)(F)F)cc3-c3ccc(F)cc3O)CC2)c1 [Compound 353]
< 1000 | Cc1ccc(F)c(-c2ccccc2OCC(=O)N2CCC(CCc3ccc4c(c3)OCO4)CC2)c1 [Compound 239]
< 1000 | CC(C)Oc1cccc(CCC2CCN(C(=O)COc3ccccc3-c3ccc(C#N)cc3O)CC2)c1 [Compound 443]
< 1000 | O=C(COc1ccccc1-c1cccc(C(F)(F)F)c1)N1CCC(CCc2ccc3c(c2)OCO3)CC1 [Compound 204]
< 1000 | CC(C)Oc1cccc(CCC2CCN(C(=O)COc3ccccc3-c3ccc(C#N)cc3OCc3ccccc3)CC2)c1 [Compound 442]
< 1000 | N#Cc1ccc(-c2ccccc2OCC(=O)N2CCC(CCc3ccc4c(c3)OCCO4)CC2)cn1 [Compound 297]
< 1000 | CC(C)Oc1cccc(CCC2CCN(C(=O)COc3ccccc3-c3cc(C#N)ccc3OCc3ccccc3)CC2)c1 [Compound 440]
< 1000 | CC1Oc2ccc(CCC3CCN(C(=O)COc4ccccc4-c4ccccc4)CC3)cc2OC1C (stereo not drawn) [Compound 256]
